Laboratory results reported in patent US20060252766A1, “Methods using a combination of 3-heteroaryl-2-indolinone and a cyclooxygenase-2 inhibitor for the treatment of neoplasia” (PFIZER INC, priority 2002, published 2006).
Where “and” joins values, the source holds several entries; their conditions need not be identical. Equal values may be shown once.

System: 1483 human head and neck squamous cell carcinoma (HNSCC) xenograft
Test: HN1483 tumor model: paw tumor volume of treated mice
Type: in vivo, nude mice
Conditions: for Paw volume, paw / Tumor vol.: individual mice; for Tumor vol.: paw minus BKG. 0.10
[1] = Celecoxib/40 ppm, Day 17 Mar. 16, 2001
[2] = Celecoxib/40 ppm, Day 21 Mar. 20, 2001
[3] = Celecoxib/40 ppm, Day 24 Mar. 23, 2001
[4] = Celecoxib/40 ppm, Day 31 Apr. 2, 2001
[5] = Celecoxib/40 ppm, Day 31 Mar. 30, 2001
[6] = Celecoxib/160 ppm, Day 17 Mar. 16, 2001
[7] = Celecoxib/160 ppm, Day 21 Mar. 20, 2001
[8] = Celecoxib/160 ppm, Day 24 Mar. 23, 2001
[9] = Celecoxib/160 ppm, Day 31 Apr. 2, 2001
[10] = Celecoxib/160 ppm, Day 31 Mar. 30, 2001

Cc1ccc(-c2cc(C(F)(F)F)nn2-c2ccc(S(N)(=O)=O)cc2)cc1 [Celecoxib, celecoxib, reference compound]
Paw volume, paw (Celecoxib/40 ppm, Day 14 Mar. 13, 2001): 0.28 (2×) and 0.25 (2×) and 0.24 (2×) and 0.29 and 0.27
Tumor vol. Average (Celecoxib/40 ppm, Day 17 Mar. 16, 2001, group average): 0.17
Paw volume, paw [1]: 0.3 and 0.29 (2×) and 0.22 and 0.32 and 0.27 and 0.25 (2×)
Tumor vol. [1]: 0.20 and 0.19 (2×) and 0.12 and 0.22 and 0.17 and 0.15 (2×)
Tumor vol. Average (Celecoxib/40 ppm, Day 21 Mar. 20, 2001, group average): 0.22
Paw volume, paw [2]: 0.38 (2×) and 0.23 and 0.36 and 0.28 (2×) and 0.39 and 0.31
Tumor vol. [2]: 0.28 (3×) and 0.13 and 0.18 (2×) and 0.29 and 0.21
Tumor vol. Average (Celecoxib/40 ppm, Day 24 Mar. 23, 2001, group average): 0.23
Paw volume, paw [3]: 0.37 and 0.32 and 0.23 and 0.44 and 0.28 and 0.29 and 0.47 and 0.27
Tumor vol. [3]: 0.27 and 0.22 and 0.13 and 0.34 and 0.18 and 0.19 and 0.37 and 0.17
Tumor vol. Average (Celecoxib/40 ppm, Day 31 Apr. 2, 2001, group average): 0.48
Paw volume, paw [4]: 0.7 and 0.48 (2×) and 0.25 and 0.75 and 0.44 and 0.38 and 0.89
Tumor vol. [4]: 0.60 and 0.38 (2×) and 0.18 and 0.55 and 0.34 and 0.28 and 0.79
Tumor vol. Average (Celecoxib/40 ppm, Day 31 Mar. 30, 2001, group average): 0.40
Paw volume, paw [5]: 0.63 and 0.51 and 0.27 and 0.72 and 0.30 and 0.39 and 0.71 and 0.41
Tumor vol. [5]: 0.53 and 0.41 and 0.17 and 0.82 and 0.29 and 0.20 and 0.61 and 0.31
Paw volume, paw (Celecoxib/160 ppm, Day 14 Mar. 13, 2001): 0.19 and 0.26 and 0.22 and 0.3 and 0.23 (3×) and 0.28
Tumor vol. Average (Celecoxib/160 ppm, Day 17 Mar. 16, 2001, group average (row not labelled)): 0.18
Paw volume, paw [6]: 0.24 and 0.25 (2×) and 0.21 and 0.31 and 0.23 and 0.29 and 0.27
Tumor vol. [6]: 0.14 and 0.15 (2×) and 0.11 and 0.21 and 0.13 and 0.19 and 0.17
Tumor vol. Average (Celecoxib/160 ppm, Day 21 Mar. 20, 2001, group average (row not labelled)): 0.15
Paw volume, paw [7]: 0.22 and 0.28 (2×) and 0.24 and 0.32 and 0.3 (2×) and 0.25
Tumor vol. [7]: 0.12 and 0.16 (3×) and 0.14 and 0.22 and 0.20 (2×)
Tumor vol. Average (Celecoxib/160 ppm, Day 24 Mar. 23, 2001, group average (row not labelled)): 0.19
Paw volume, paw [8]: 0.22 and 0.28 and 0.24 (2×) and 0.38 and 0.27 and 0.35 and 0.31
Tumor vol. [8]: 0.12 and 0.16 and 0.14 (2×) and 0.28 and 0.17 and 0.26 and 0.21
Tumor vol. Average (Celecoxib/160 ppm, Day 31 Apr. 2, 2001, group average (row not labelled)): 0.29
Paw volume, paw [9]: 0.33 (3×) and 0.57 and 0.29 and 0.59 and 0.4 and 0.28
Tumor vol. [9]: 0.23 (2×) and 0.22 and 0.47 and 0.19 and 0.49 and 0.30 and 0.10
Tumor vol. Average (Celecoxib/160 ppm, Day 31 Mar. 30, 2001, group average (row not labelled)): 0.29
Paw volume, paw [10]: 0.38 and 0.32 and 0.3 and 0.49 and 0.33 and 0.57 and 0.4 and 0.5
Tumor vol. [10]: 0.28 and 0.22 and 0.20 (2×) and 0.39 and 0.23 and 0.47 and 0.30
